The assay concerns the target SARS-CoV-2 NSP3 macrodomain (Mac1) (Severe acute respiratory syndrome coronavirus 2, UniProt P0DTD1). As to the kind of experiment: biochemical. Conditions: for Ki: read-out: SARS CoV-2 macrodomain HTRF assay: Ki; for Ligand efficiency (binding enery per heavy atom): from SARS CoV-2 macrodomain HTRF assay. It counts as binding. On the technique in general: TR-FRET usually uses a lanthanide donor and a delayed reading to cut background.

Where [1] appears, read: Dose-response, SARS CoV-2 macrodomain HTRF assay, read-out: IC50.
[2] abbreviates: Single dose, 200 μM, mean of three technical replicates.
Where [3] appears, read: Single dose, concentration 200 μM, read-out: Average % competition.
[4] abbreviates: preliminary screen, compound at 200 μM, mean of 3-4 technical replicates, read-out: % competition in HTRF assay.
[5] abbreviates: dose-response, read-out: SARS CoV-2 macrodomain HTRF assay: IC50.
The mark [6] stands for this setting: Single dose, concentration 200 μM, read-out: SARS CoV-2 macrodomain HTRF assay: Average % competition.

These results are taken from paper doi:10.1101/2024.08.25.609621 (bioRxiv, 2024).

Structures are written as SMILES. Where two headings read alike, the source gives them in different places.

Consider `Cc1ncc(CN(C)C(=O)c2cccc(N)c2F)s1` [AVI-293], for which the concentration for half-maximal inhibition (IC50) (usually the concentration needed to halve the response being measured) under setting [1] is > 1000 µM. The molecule also gave an Average % competition under setting [2] of 14%.
`Cc1nc2cc(NC(=O)C3CC(=O)Nc4ccccc43)ccc2o1` (centres unmarked) [AVI-292] gave an Average % competition of 0%.
Take `COc1ccc(-c2nccc(N3CCC(c4ccsc4)CC3)n2)cc1` [AVI-344]: the Average % competition is listed as <10%.
Turning to `O=C(O)C(F)(F)F.OCC(Nc1ncnc2[nH]ccc12)C(O)C1CCCCC1` (centres unmarked) [AVI-3687], the inhibition at 200 µM is 33% under setting [3] and 33% under setting [4].
On to `Cc1nc(N)ncc1C(=O)NCC(O)Cc1ccc(Cl)cc1` (centres unmarked) [AVI-343], for which the Average % competition was <10%.
For `O=C1OC(CSC2CCC(O)C2)CN1C1CCCCC1` (centres unmarked) [AVI-6019], where the note is “read-out: IC50”, the half-inhibitory concentration (IC50) is > 1000 µM.
Take `Nc1ncnc2sc3c(c12)CCN(C(=O)[C@H]1CC=CCC1)C3` [AVI-331]: the Average % competition is reported as <10%.
Regarding `Nc1cccc(CSC2CCc3ccccc32)n1` (centres unmarked) [AVI-6015], the concentration for half-maximal inhibition (IC50) (read-out: IC50) was > 1000 µM.
Take `CC1(C)CCC(O)(CNc2ncnc3[nH]ccc23)CC1` [AVI-4310]: the “Ligand efficiency (binding enery per heavy atom)” value amounted to 0.29. Further, the IC50 under setting [5] is 76 µM. Under “dose-response”, the Ki (commonly a dissociation constant, usually derived from enzyme kinetics or from competition with a known ligand) is 71 µM.
Turning to `CCCC1CCCC1C(=O)N[C@H]1CCc2nc(N)sc2C1` (some centres unmarked) [AVI-298], the Average % competition was <10%.
In the case of `O=C(O)C1CN(C(=O)c2cccc3[nH]ccc23)c2ccccc21` (centres unmarked) [AVI-314], the IC50 under setting [1] is > 1000 µM. For the same molecule, under setting [2], the Average % competition was determined as 32%.
Molecule `CCOc1ccc(-c2nc(CC(=O)N3CCn4cccc4C3C)cs2)cc1` (centres unmarked) [AVI-325] came in with an Average % competition of 0%.
`Nc1ncnc(N2CCC(C(F)(F)F)C3(CCC3)C2)c1Cl` (centres unmarked) [AVI-324]: the Average % competition is listed as <10%.
Take `O=C(O)C(F)(F)F.OC[C@@H](CCc1ccccc1)Nc1ncnc2[nH]ccc12` [AVI-3654]: the inhibition at 200 µM reads like this: under setting [3], 27%; under setting [4], 27%.
As for `O=C1COc2cc(C(=O)N3CC(C(=O)O)c4ccccc43)ccc2N1` (centres unmarked) [AVI-289], the half-inhibitory concentration (IC50) under setting [1] is > 1000 µM. Under setting [2], this molecule returned an Average % competition of 21%.
With `CC(=O)Nc1ccc(NC(=O)CSc2nnnn2C2CCCC2)cc1` [AVI-315], the Average % competition worked out at 0%.
With `O[C@@H]1CNCC[C@H]1Nc1ncnc2[nH]ccc12` [AVI-613], the inhibition at 200 µM is < 10% under setting [3] and < 10% under setting [4].
For `CC(OC(=O)c1ccc2nc(N)sc2c1)C(=O)N1CCCCCC1` (centres unmarked) [AVI-304], the Average % competition was 0%.
`Cc1ccc2c(c1)C(=O)N(CCC(=O)Nc1cnc3c(c1)c(C)nn3C)C2=O` [AVI-301] returned an Average % competition of 16%.
Regarding `Nc1ncnc(N2CCCCC3(CCC3)C2)c1Cl` [AVI-6017], the concentration for half-maximal inhibition (IC50) (read-out: IC50) was > 1000 µM.
With `Cc1ccc(N2CCN(c3ncnc(-c4ccccc4)n3)CC2=O)cc1` [AVI-336], the Average % competition is <10%.
As for `CC(C)(C)C(O)CC(CO)Nc1ncnc2[nH]ccc12.O=C(O)C(F)(F)F` (centres unmarked) [AVI-3714], the inhibition at 200 µM under setting [3] was < 10% and the inhibition at 200 µM under setting [4] was < 10%.
On to `Cc1ccc(CC(=O)N2CCSC23CC(C(=O)O)C3)cc1O` (centres unmarked) [AVI-347], for which the Average % competition is reported as <10%.
`Cn1c(=O)[nH]c(=O)c2c1nc(Br)n2CC(=O)C1CCC(F)(F)CC1` [AVI-6020]: the IC50 (read-out: IC50) is > 1000 µM.
As to `Nc1cc(N2CCC3CCCCC3C2)ncn1` (centres unmarked) [AVI-339], the 50% inhibitory concentration (IC50) under setting [1] is > 1000 µM. In addition, under setting [2], the Average % competition is recorded as <10%.
`CC1c2ccsc2CCN1C(=O)Cc1csc(-c2ccccc2)n1` (centres unmarked) [AVI-287] registered an Average % competition of 0%.
On to `O=C(O)C1CN(C(=O)c2ccc3[nH]nnc3c2)c2ccccc21` (centres unmarked) [AVI-319], for which the Average % competition is on record as 25%.
The same measure, in the same setting: to `CC1(c2ccc(F)cc2)CN(C(=O)c2cnc(N)nc2C(F)(F)F)C1` [AVI-340] belongs 20%.
With `O[C@H]1CNCC[C@@H]1Nc1ncnc2[nH]ccc12` [AVI-615], the inhibition at 200 µM is, setting by setting: under setting [6], < 10%; under setting [4], < 10%.
On to `O[C@@]1(Cn2ccnn2)CCCN(c2ncnc3[nH]ccc23)C1` [AVI-608], for which the inhibition at 200 µM under setting [3] was 8% and the inhibition at 200 µM under setting [4] is < 10%.
Regarding `O=C(O)C(F)(F)F.OCC(Nc1ncnc2[nH]ccc12)C1CCCO1` (centres unmarked) [AVI-3645], the inhibition at 200 µM was found to be 54% under setting [3] and 54% under setting [4].
As to `OC1(CNc2ncnc3[nH]ccc23)CCC2(CC1)OCCO2` [AVI-4315], the “Ligand efficiency (binding enery per heavy atom)” value is listed as 0.23. Also, under setting [5], the IC50 came to 210 µM. For the setting “dose-response”, the Ki is 200 µM.
For the molecule `CC(Nc1ncnc2[nH]ccc12)C1(O)CCCCC1` (centres unmarked) [AVI-4321], the “Ligand efficiency (binding enery per heavy atom)” value was determined as 0.32. Moreover, under setting [5], the half-inhibitory concentration (IC50) turned out to be 48 µM. The inhibition constant Ki (dose-response) was found to be 45 µM.
In the case of `N#Cc1cnc(CSc2nc(-c3ccccc3)co2)nc1N` [AVI-332], the Average % competition was <10%.
As to `Cc1nc(-c2cccc(NC(=O)NCc3cccs3)c2)n[nH]1` [AVI-306], the 50% inhibitory concentration (IC50) under setting [1] was > 1000 µM. The Average % competition under setting [2] is 20%.
Take `Cn1ccc2cc(NC(=O)C3CC(=O)NC4CCCCC43)ccc21` (centres unmarked) [AVI-342]: the Average % competition was <10%.
For the molecule `O=C(O)C1CCc2nnc(-c3ccc(F)cc3)n2C1` (centres unmarked) [AVI-326], the Average % competition was determined as 15%.
For the molecule `Cc1c[nH]c2ncnc(NCC3(O)CCC(C)(C)CC3)c12` [AVI-4330], the “Ligand efficiency (binding enery per heavy atom)” value was 0.21. For the same molecule, the IC50 under setting [5] came out at 650 µM. Besides, the inhibitory constant (Ki) (dose-response) worked out at 610 µM.
Consider `CC(NC(=O)c1ccc(N)nc1Cl)C(O)c1cccc(F)c1` (centres unmarked) [AVI-349], for which the Average % competition is recorded as 15%.
For `Cc1ccc(O)c(C(=O)c2cnn3c(N)nnc3c2)c1` [AVI-310], the Average % competition is 0%.
As for `CC(C(=O)NCc1c(C(=O)O)[nH]c2ccccc12)n1cncn1` (centres unmarked) [AVI-337], the Average % competition came to 14%.
As for `Cc1nn(C)c2sc(C(=O)N3CC(C(=O)O)c4ccccc43)cc12` (centres unmarked) [AVI-327], the Average % competition was found to be 0%.
Regarding `O=[N+]([O-])c1ccc(C(O)C(CO)Nc2ncnc3[nH]ccc23)cc1` (centres unmarked) [AVI-3672], the inhibition at 200 µM was 43% under setting [3] and 43% under setting [4].
In turn, `O=C(c1cc(C2CCCCC2)[nH]n1)N1CCCC(O)(C(F)(F)F)CC1` (centres unmarked) [AVI-318] showed an Average % competition of 13%.
Consider `OCC1(Nc2ncnc3[nH]ccc23)COC1` [AVI-5649], for which the inhibition at 200 µM is, setting by setting: under setting [3], < 10%; under setting [4], < 10%.
As to `O=C(O)C(F)(F)F.OCC(Cc1cccc(F)c1)Nc1ncnc2[nH]ccc12` (centres unmarked) [AVI-3706], the inhibition at 200 µM by setting is: under setting [3], 77%; under setting [4], 77%.
The molecule `Cc1nnc2n1CCN(C(=O)CN1C(=O)CCOc3ccccc31)C2` [AVI-302] came in with an Average % competition of 0%.
`Cc1ccc(C)c(CN2C(=O)NC(C)(Cc3ccc4c(c3)OCO4)C2=O)c1` (centres unmarked) [AVI-320] showed an Average % competition of 18%.
As for `O=C(O)C(F)(F)F.OCC1C2C=CC(C2)N1c1ncnc2[nH]ccc12` (centres unmarked) [AVI-3712], the inhibition at 200 µM by setting is: under setting [6], 55%; under setting [4], 55%.
In the case of `CC(O)C1CCN(c2cc(N3CCC(c4ccccc4)CC3C)ncn2)C1` (centres unmarked) [AVI-6016], the IC50 (read-out: IC50) is > 1000 µM.
Molecule `O=C1CC(C(=O)Nc2nc3c(s2)CCCC3)c2ccccc2N1` (centres unmarked) [AVI-307] came in with an Average % competition of 0%.
Turning to `O=c1[nH]c2ccccc2cc1CNc1nc(C2CC2)ns1` [AVI-346], under setting [1], the IC50 was > 1000 µM. Further, under setting [2], the Average % competition is <10%.
